How the values were obtained:
Format in all cases: physicochemical
[1] = Partitioning indicator displacement assay (PIDA), CTAB/octanol drops with blue 1 dye indicator
Source text: The organic drops with fully dissolved indicator were exposed to an aqueous phase containing the target analyte. Over time the target analyte displaced the indicator and partitioned into the organic phase. In this experiment, the sensor had various concentrations of CTAB dissolved into the organic phase and used the maximum saturation ratio of blue dye to CTAB (Mechanism paper) to saturate each organic phase solution with the indicator, blue FCF dye. The displacement of blue dye from the organic phase was measured by monitoring optical transmittance using a color camera.
Five concentrations (60 mM, 30 mM, 15 mM, 7.5 mM, and 3.75 mM) of CTAB in octanol were placed in a tube along with 50 μM of blue dye dissolved in D.I. water, set on a shaker and allowed to equilibrate. An array was made with a sample of each concentration with the blue dye; with 11 drops (replicates) of each concentration and viewed using a DinoLite microscope. Four-hundred μM of aqueous red dye was flowed into the array and a picture was taken before addition of red dye and then every 5 seconds over a 15 minute period. […] Images were analyzed in imageJ, using […] within each replicate and 25 points for background analysis. The replicates were then separated by channel as gray values of the micrographs, and data normalized into absorbance values by subtracting the original dye free data from each replicate. The replicates were averaged per concentration and the data was transferred into percent transmittance using the formula […].
The organic solute cetyltrimethylammonium bromide (CTAB) was purchased from Sigma-Aldrich (St. Louis, USA). Erioglaucine disodium salt (Blue 1) was purchased from Sigma-Aldrich (St. Louis, MO, USA). 10 mL of 6 mM, 3 mM, 1.5 mM, 0.75 mM, and 0.375 mM blue 1 dye dissolved in deionized water and added to separate tubes containing 2 mL of different concentrations of CTAB in octanol (60 mM, 30 mM, 15 mM, 7.5 mM, and 3.75 mM), set on a shaker and allowed to equilibrate. After equilibrating for one week, the organic layer of each CTAB concentration containing the blue 1 dye was used to make the microarray.
50 nL octanol drops containing CTAB and blue 1 dye were placed onto microscope slides manufactured by Azer Scientific (Unifrost) using 0.1-10 μL disposable sterile pipet tips (VWR). A barrier of 0.3 mm PDMS was used as a spacer between the slide and cover slip (25 mm×25 mm) manufactured by VWR. Approximately 135 μL of analyte solution was added to the flow cell and moved quickly through the flow cell.
Samples were imaged with a digital microscope (Dino-Lite Pro2 AD-413T or Dino-Lite Edge AM4115ZT) at 100 Å˜ magnification. For imaging PIDA assays, a portable backlight stage (Dino-Lite MSBL-ZW1R) was used as a white light source and positioned under the bottom of the slide to illuminate the sample. Images for measurement of the transmittance were captured in brightfield mode. The time dependent partitioning was recorded at one frame per 20 second intervals.
Images were analyzed in imageJ, using 10 points within each replicate and 25 points for background analysis. The replicates were then separated into different RGB channels as gray values of the micrographs. The data was then normalized into transmittance values by subtracting the original dye free data from each replicate. The data was then converted into absorbance using the formula […]. Using the absorbance data, and the measured initial blue dye concentrations, the data was converted to blue dye concentration and then the replicates were averaged per concentration and the standard deviation was calculated. Graphs showing the separate channels of the micrographs, with the red color (b) or blue color (e) that was viewable with the DinoLite, and how they differed with concentration (B and E). The graphs are made from each of the 5 concentrations with their associated normalized absorbance values. […]

[2] = Cross-polarized microscopy of CTAB containing octanol droplets exposed to aqueous dye; details: for birefringent phase formation under crossed polarizers: CTAB containing droplet arrays exposed to dye (FIGS. 6A-6B); for anisotropic phase (birefringent ring) formation, single-dye system: 400 uM red dye only or 50 uM blue dye only, CTAB drops 7.5-60 mM, ring at 30 mM CTAB or higher
Protocol: Also, it can be observed that there is formation of an anisotropic phase in the 30 mM CTAB drops in the red and blue dye and the red dye only systems before the red dye fully partitions into the organic phase of the drop around 5 minutes. After 5 minutes, as the red dye continues to partition into the organic phase, this anisotropic phase seems to disappear. This can be observed by observing the absence of the anisotropic phase at 10 minutes and all later times for the 30 mM CTAB drops in the red and blue dye and the red dye only systems. […] This pattern of anisotropic phase formation before the red dye partitions supports the kinetic barrier mechanism which depends on the formation of some anisotropic phase on the interface of the drops with high CTAB concentration that hinders the red dye from partitioning in and allows the blue dye to partition in at a faster rate resulting in the observed high CTAB concentration blue dye selectivity and the low CTAB concentration red dye selectivity in the Bell, 2020 study.
Erioglaucine disodium salt (Blue 1) was purchased from Sigma-Aldrich (St. Louis, MO, USA). Allura red AC (Red 40) was obtained from TCI (Tokyo, Japan). For the birefringent ring experiments shown in FIG. 3, 400 uM red 40 dye and 50 uM blue 1 dye were dissolved in D.I. water. For the equilibrium tube experiment, dye concentrations were chosen based on the assumption that one dye molecule can be sequestered for every two CTAB molecules. The dye concentrations are chosen such that once this criterion is met, there will be enough dye left in the aqueous phase to be detected by a spectrophotometer so that the aqueous phase solution will have concentrations of 1700 uM, 850 uM, 425 uM, 213 uM, 106 uM for both red 40 dye and blue 1 dye.
The different lipid solutions were microarrayed using 0.1-10 μL disposable sterile pipet tips (VWR) directly onto the substrate. Drops were 0.1 uL in volume and only had contact with the bottom glass slide. After tapping the microarray onto the substrate, 0.3 mm thick PDMS was used as a spacer between the substrate and the cover. The two spacers will be fixed 1.8 cm apart onto the substrate. The coverslip will be placed carefully onto two spacers. Microscope slides manufactured by Azer Scientific (Unifrost) will be used as substrates. Microscope cover glasses (25 mm Å˜25 mm) manufactured by VWR will be used as slipcovers. Approximately 130 μL of aqueous solution was added to the right side of the flow cell and moved quickly through the flow cell. Prior to experiments, test samples will be incubated in 1 mL of deionized water to test for stability.
The blue 1 dye and red 40 dye used wavelengths of 629 nm and 501 nm respectively for absorbance measurements. Microarray samples requiring 30 min or less were imaged with a digital microscope (Dino-Lite Pro2 AD-413T or Dino-Lite Edge AM4115ZT) at 100 Å˜ magnification. For imaging lipid microarrays, a portable backlight stage (Dino-Lite MSBL-ZW1R) was used as a white light source and positioned under the bottom of the slide to illuminate the sample.

[3] = Surfactant mediated selective dye partitioning octanol/water in tubes (non-equilibrated); details: mixture of red and blue dye in water, 4-48 hours
Protocol: Herein, detecting selective partitioning into droplets in a microfluidic device was scaled up to millimeter volumes in tubes, as shown in FIGS. 15A-15B and FIGS. 16A-16B. The selective partitioning behavior of the two dyes between the octanol and water phases was studied in test tubes (FIGS. 15A-15B), and dye concentrations quantified optically. First, solutions of CTAB in octanol and both dyes in water were prepared separately. Then both the aqueous and organic solutions were combined into one tube. After some time, one or both dyes partitioned into the organic phase. […] Due to the larger scale of the experiment, it took between 4-48 hours to observe the selectivity, as compared to 1-10 minutes in the microfluidic setup. (Bell, 2020.) A question about the mechanism of this surfactant mediated molecular recognition was then whether one dye is thermodynamically favored to partition into the octanol in the presence of CTAB or whether it is kinetically driven. […]
Erioglaucine disodium salt (Blue 1) was purchased from Sigma-Aldrich (St. Louis, MO, USA). […] The dye concentrations are chosen such that once this criterion is met, there will be enough dye left in the aqueous phase to be detected by a spectrophotometer so that the aqueous phase solution will have concentrations of 1700 uM, 850 uM, 425 uM, 213 uM, 106 uM for both red 40 dye and blue 1 dye.

[4] = Equilibrium dye partitioning octanol/water with CTAB (tubes, absorbance of aqueous phase); details: for stoichiometric ratio, CTAB molecules needed to extract each dye molecule: calculated from dye left in the water after extraction, where not all dye was extracted
Source text: To examine the dye partitioning at equilibrium, the two-phase system at various CTAB concentrations, samples were left on a shaker for one week followed by centrifugation and optical characterization of the aqueous phase by absorbance spectroscopy (FIGS. 16A-16B). Tubes containing only the red dye and only blue dye were included in the experiment as well as tubes with the dye mixture. […] CTAB has a net charge of +1 whereas both dye molecules have a net charge of −2. Thus, two positively charged CTAB can effectively balance the negative charge of the dye molecules resulting in a zero net charge for a complex of two CTAB and one dye molecule.
In order to further study the equilibrium state at high CTAB concentrations, the setup was used to allow for observation of the equilibrated state at high CTAB concentrations with excess dye in the water. Using the previously calculated dye ratios needed for maximum saturation in the organic phase, the dye concentrations were chosen so that it would be impossible for both red and blue dye to fully partition into the organic phase. Tubes with a range of concentration from 3.75 mM to 60 mM CTAB dissolved in octanol and deionized water with blue and red dye concentrations ranging from 106 μM to 1700 μM. By observing which dye is left in the aqueous phase after equilibrium is reached, it can be determined which dye is more thermodynamically favorable in the organic phase at equilibrium. If the mechanism for the blue dye selectivity at high CTAB concentrations is thermodynamic in nature and depends on the formation of micelles in the organic phase, then at high CTAB concentrations the dye remaining in the aqueous phase should be the red dye and at low CTAB concentrations, the dye remaining in the aqueous phase should be the blue dye. However, if the mechanism is kinetic and relies on the formation of an aggregation phase at the interface of the two phases, then at all concentrations of CTAB the dye remaining in the aqueous phase should be the blue dye. […] From this it was concluded that the red dye is thermodynamically favored to partition into the CTAB containing organic phase.
Erioglaucine disodium salt (Blue 1) was purchased from Sigma-Aldrich (St. Louis, MO, USA). Allura red AC (Red 40) was obtained from TCI (Tokyo, Japan). […] The dye concentrations are chosen such that once this criterion is met, there will be enough dye left in the aqueous phase to be detected by a spectrophotometer so that the aqueous phase solution will have concentrations of 1700 uM, 850 uM, 425 uM, 213 uM, 106 uM for both red 40 dye and blue 1 dye. […]
The blue 1 dye and red 40 dye used wavelengths of 629 nm and 501 nm respectively for absorbance measurements. […]

[5] = 3.75 mM CTAB drops, blue 1 dye indicator, red 40 dye analyte, from TRF fitting

CCCCCCCCCCCCCCCC[N+](C)(C)C.[Br-] [CTAB, cetyltrimethylammonium bromide]
delay in onset time of displacement [1, 5]: no delay in onset time
rate of displacement (decay constant) [1, 5]: 0.48 s⁻¹
rate of displacement (decay constant) ([1]; 7.5 mM CTAB drops, blue 1 dye indicator, red 40 dye analyte, from TRF fitting): 0.42 s⁻¹
delayed onset time of displacement ([1]; 30 mM CTAB drops, blue 1 dye indicator, red 40 dye analyte, from TRF fitting): 7.76 min
displacement rate ([1]; 30 mM CTAB, blue 1 dye indicator, red 40 dye analyte, from TRF fitting): 0.07 s⁻¹

O=S(=O)([O-])c1ccc(N=Nc2c(O)ccc3cc(S(=O)(=O)[O-])ccc23)cc1.[Na+].[Na+] [Sunset Yellow FCF]
birefringent phase formation under crossed polarizers [2]: not

CCN(Cc1cccc(S(=O)(=O)[O-])c1)c1ccc(C(=C2C=CC(=[N+](CC)Cc3cccc(S(=O)(=O)[O-])c3)C=C2)c2ccccc2S(=O)(=O)[O-])cc1.[Na+].[Na+] [blue dye, Erioglaucine disodium salt]
anisotropic phase (birefringent ring) formation, single-dye system ([2]; disodium salt): no anisotropic phase formation
anisotropic phase (birefringent ring) formation, single-dye system ([2]; listed as Blue Dye, disodium salt): doesn't cause a ring
selective partitioning into the octanol phase ([3]; high CTAB concentrations (30 mM and 60 mM) in octanol): selectively partitioned into the octanol phase
stoichiometric ratio, CTAB molecules needed to extract each dye molecule [4]: approximately 2

COc1cc(S(=O)(=O)[O-])c(C)cc1N=Nc1c(O)ccc2cc(S(=O)(=O)[O-])ccc12.[Na+].[Na+] [red dye, Allura red AC]
anisotropic phase (birefringent ring) formation, single-dye system [2]: formation of an anisotropic structure
anisotropic phase (birefringent ring) formation, single-dye system ([2]; listed as Allura Red Dye): causes a ring
birefringent phase formation under crossed polarizers [2]: birefringent phase forming
selective partitioning into the octanol phase ([3]; CTAB 0.5 mM and 1 mM in octanol): selectively partitioned into the octanol phase
partitioning at equilibrium with excess dye in the water ([4]; 3.75 mM to 60 mM CTAB in octanol, blue and red dye 106 μM to 1700 μM, all concentrations tested): preferentially partition into the organic phase
stoichiometric ratio, CTAB molecules needed to extract each dye molecule [4]: approximately 2
partitioning at equilibrium ([4]; low CTAB concentration (<15 mM), shaker one week): partitioned into the octanol phase

[Cl-].[Na+] [sodium chloride]
blue dye indicator displaced ([1]; 50 mM analyte, after 10 minutes, 7.5 mM CTAB containing octanol drops (FIG. 7B)): ~48.3%

Reference: patent US12656355B2, “Two phase indicator displacement assay” (The Florida State University Research Foundation, Inc., priority 2022, dated 2026)
